Results: patent publication US20120029190A1, “COMPOUNDS FOR TREATING DISORDERS MEDIATED BY METABOTROPIC GLUTAMATE RECEPTOR 5, AND METHODS OF USE THEREOF” (priority 2009, published 2012)

The compounds below were run against T1, human recombinant mGluR5 receptor (Homo sapiens, UniProt P41594) (assay: mGluR5 in vitro functional assay (aequorin cell line, inhibition of glutamate EC80 response)). Settings: Table 1; aequorin cell line expressing human mGluR5, reference agonist glutamate at EC80; obtained in duplicate; read-out: IC50.
T1 construct: expressed in transfected cells; expression induced with doxycycline
Type: cell-based
How it was run: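 Doxycycline-induced (600 ng/mL, 18 h) aequorin cells loaded with coelenterazine h ≥4 h at room temperature; compound preincubated 3 min before glutamate at EC80. Luminescence recorded, normalized to digitonin or 20 mM ATP wells; % inhibition of EC80 response fitted by sigmoidal nonlinear regression.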

T1 sequence (P41594 21-1212): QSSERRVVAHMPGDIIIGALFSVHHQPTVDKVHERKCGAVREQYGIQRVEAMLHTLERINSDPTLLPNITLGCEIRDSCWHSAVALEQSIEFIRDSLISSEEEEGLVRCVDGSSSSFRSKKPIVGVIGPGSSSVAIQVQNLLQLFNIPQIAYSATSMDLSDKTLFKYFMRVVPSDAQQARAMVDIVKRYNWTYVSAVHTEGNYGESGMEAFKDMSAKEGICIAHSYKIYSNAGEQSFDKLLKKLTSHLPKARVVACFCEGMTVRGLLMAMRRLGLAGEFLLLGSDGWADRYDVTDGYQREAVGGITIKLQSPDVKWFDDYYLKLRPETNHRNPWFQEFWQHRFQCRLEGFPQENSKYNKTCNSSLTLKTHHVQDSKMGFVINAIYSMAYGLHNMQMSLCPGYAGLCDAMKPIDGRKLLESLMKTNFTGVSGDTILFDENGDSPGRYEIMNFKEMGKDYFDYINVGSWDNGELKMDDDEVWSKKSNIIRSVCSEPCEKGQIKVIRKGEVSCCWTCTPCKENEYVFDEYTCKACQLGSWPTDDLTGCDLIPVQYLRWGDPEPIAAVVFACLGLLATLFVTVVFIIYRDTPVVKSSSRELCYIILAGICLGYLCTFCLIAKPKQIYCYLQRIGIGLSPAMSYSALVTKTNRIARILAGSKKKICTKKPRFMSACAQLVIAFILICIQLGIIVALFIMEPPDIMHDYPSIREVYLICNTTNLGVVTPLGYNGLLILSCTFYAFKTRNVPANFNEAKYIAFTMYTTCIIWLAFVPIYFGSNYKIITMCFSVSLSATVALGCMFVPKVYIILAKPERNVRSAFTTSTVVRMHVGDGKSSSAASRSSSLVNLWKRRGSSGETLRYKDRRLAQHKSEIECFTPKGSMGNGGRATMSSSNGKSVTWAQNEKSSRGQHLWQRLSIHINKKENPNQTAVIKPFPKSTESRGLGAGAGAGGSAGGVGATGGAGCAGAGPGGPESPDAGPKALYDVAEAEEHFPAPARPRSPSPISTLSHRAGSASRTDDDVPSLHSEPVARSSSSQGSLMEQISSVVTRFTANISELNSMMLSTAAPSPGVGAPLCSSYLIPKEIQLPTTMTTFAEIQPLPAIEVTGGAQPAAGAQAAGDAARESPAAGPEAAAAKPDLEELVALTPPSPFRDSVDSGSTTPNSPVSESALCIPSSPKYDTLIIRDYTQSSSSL

IC50 [µM] | SMILES
< 10 | N#Cc1cccnc1N1CCn2cc(-c3cccc(Cl)c3)nc2C1 [Compound 108, 2-(2-(3-Chlorophenyl)-5,6-dihydroimidazo[1,2-a]pyrazin-7(8H)-yl)nicotinotrile]
< 1 | Fc1cccc(N2CCn3nc(-c4ccccn4)nc3C2)c1 [Compound 114, 7-(3-Fluorophenyl)-2-(pyridin-2-yl)-5,6,7,8-tetrahydro-[1,2,4]triazolo[1,5-a]pyrazine]
< 1 | c1ccc(-c2nc3c(o2)CCN(c2nccs2)C3)nc1 [Compound 55, 2-(Pyridin-2-yl)-5-(thiazol-2-yl)-4,5,6,7-tetrahydrooxazolo[4,5-c]pyridine]
< 10 | N#Cc1cc(F)cc(CN2CCc3oc(-c4ccccn4)nc3C2)c1 [Compound 35, 3-Fluoro-5-((2-(pyridin-2-yl)-6,7-dihydrooxazolo-[4,5-c]pyridin-5(4H)-yl)methyl)benzonitrile]
< 10 | c1ccc(-c2nc3c(o2)CN(c2cnccn2)CC3)cc1 [Compound 18, 2-Phenyl-5-(pyrazin-2-yl)-4,5,6,7-tetrahydrooxazolo-[5,4-c]pyridine]
< 1 | N#Cc1cccc(N2CCc3nc(-c4ccccn4)oc3CC2)c1 [Compound 88, 3-(2-(Pyridin-2-yl)-7,8-dihydro-4H-oxazolo[5,4-d]azepin-6(5H)-yl)benzonitrile]
< 10 | O=C(c1ccc(F)cc1)N1CCc2oc(-c3ccc(F)cc3)nc2C1 [Compound 54, (4-Fluorophenyl)(2-(4-fluorophenyl)-6,7-dihydrooxazolo[4,5-c]pyridin-5(4H)-yl)methanone]
< 1 | N#Cc1cccc(N2CCc3oc(-c4ccccn4)nc3C2)c1 [Compound 23, 3-(2-(Pyridin-2-yl)-6,7-dihydrooxazolo[4,5-c]pyridin-5(4H)-yl)benzonitrile]
< 1 | Fc1cncc(N2CCCc3oc(-c4ccccn4)nc3C2)c1 [Compound 104, 5-(5-Fluoropyridin-3-yl)-2-(pyridin-2-yl)-5,6,7,8-tetrahydro-4H-oxazolo[4,5-c]azepine]
< 10 | N#Cc1cc(F)cc(N2CCc3nc(-c4ccccn4)sc3C2)c1 [Compound 105, 3-Fluoro-5-(2-(pyridin-2-yl)-6,7-dihydro-thiazolo[5,4-c]pyridin-5(4H)-yl)benzonitrile]
< 10 | Fc1ccc(-c2nc3c(o2)CCN(c2cnccn2)C3)cc1 [Compound 47, 2-(4-Fluorophenyl)-5-(pyrazin-2-yl)-4,5,6,7-tetrahydrooxazolo[4,5-c]pyridine]
< 1 | N#Cc1cc(Br)cc(N2CCc3nc(-c4ccccn4)oc3C2)c1 [Compound 10, 3-Bromo-5-(2-(pyridin-2-yl)-6,7-dihydrooxazolo[5,4-c]pyridin-5(4H)-yl)benzonitrile]
< 1 | N#Cc1cc(F)cc(N2CCn3cc(-c4ccccn4)nc3C2)c1 [Compound 109, 3-Fluoro-5-(2(pyridin-2-yl)-5,6-dihydroimidazo-[1,2-a]pyrazin-7(8H)-yl)benzonitrile]
< 10 | N#Cc1nccnc1N1CCc2oc(-c3ccccc3)nc2C1 [Compound 52, 3-(2-Phenyl-6,7-dihydrooxazolo[4,5-c]pyridin-5(4H)-yl)pyrazine-2-carbonitrile]
< 1 | Fc1cc(F)cc(N2CCCc3oc(-c4ccccn4)nc3C2)c1 [Compound 101, 5-(3,5-Difluorophenyl)-2-(pyridin-2-yl)-5,6,7,8-tetrahydro-4H-oxazolo[4,5-c]azepine]
< 10 | Fc1cc(-c2ccncc2)cc(N2CCc3nc(-c4ccccn4)oc3C2)c1 [Compound 14, 5-(3-Fluoro-5-(pyridin-4-yl)phenyl)-2-(pyridin-2-yl)-4,5,6,7-tetrahydrooxazolo[5,4-c]pyridine]
> 10 | N#Cc1cccc(-c2nc3c(o2)CN(c2ccccn2)CC3)c1 [Compound 65, 3-(5-(Pyridin-2-yl)-4,5,6,7-tetrahydrooxazolo[5,4-c]pyridin-2-yl)benzonitrile]
< 1 | Fc1cc(F)cc(N2CCc3oc(-c4ccccn4)nc3C2)c1 [Compound 31, 5-(3,5-Difluorophenyl)-2-(pyridin-2-yl)-4,5,6,7-tetrahydrooxazolo[4,5-c]pyridine]
< 1 | N#Cc1cc(F)cc(N2CCCc3nc(-c4ccc(F)cn4)oc3C2)c1 [Compound 96, 3-Fluoro-5-(2-(5-fluoropyridin-2-yl)-7,8-dihydro-4H-oxazolo[5,4-c]azepin-5(6H)-yl)benzonitrile]
< 1 | N#Cc1cccc(N2CCn3cc(-c4ccccn4)nc3C2)c1 [Compound 110, 3-(2(Pyridin-2-yl)-5,6-dihydroimidazo[1,2-a]pyrazin-7(8H)-yl)benzonitrile]
< 10 | Clc1cccc(-c2cn3c(n2)CN(c2cccnc2)CC3)c1 [Compound 106, 2-(3-Chlorophenyl)-7-(pyridin-3-yl)-5,6,7,8-tetrahydroimidazo[1,2-a]pyrazine]
< 10 | N#Cc1cc(C#N)cc(N2CCc3nc(-c4ccccn4)oc3C2)c1 [Compound 16, 5-(2-(Pyridin-2-yl)-6,7-dihydrooxazolo[5,4-c]pyridin-5(4H)-yl)isophthalonitrile]
< 10 | Fc1ccc(-c2nc3c(o2)CCN(c2ccccn2)C3)cc1 [Compound 48, 2-(4-Fluorophenyl)-5-(pyridin-2-yl)-4,5,6,7-tetrahydrooxazolo[4,5-c]pyridine]

Same assay, conditions: Table 2; aequorin cell line expressing human mGluR5, reference agonist glutamate at EC80; obtained in duplicate; read-out: IC50

IC50 [µM] | SMILES
< 1 | Clc1cccc(Cl)c1N1CCc2oc(-c3ccccn3)nc2C1 [Compound 174, 5-(2,6-Dichlorophenyl)-2-(pyridin-2-yl)-4,5,6,7-tetrahydrooxazolo[4,5-c]pyridine]
< 1 | Fc1ccc(N2CCc3oc(-c4ccccn4)nc3C2)cc1F [Compound 152, 5-(3,4-Difluorophenyl)-2-(pyridin-2-yl)-4,5,6,7-tetrahydrooxazolo[4,5-c]pyridine]
< 1 | Clc1ccc(Cl)c(N2CCc3oc(-c4ccccn4)nc3C2)c1 [Compound 173, 5-(2,5-Dichlorophenyl)-2-(pyridin-2-yl)-4,5,6,7-tetrahydrooxazolo[4,5-c]pyridine]
< 1 | Fc1ccc(F)c(N2CCc3oc(-c4ccccn4)nc3C2)c1 [Compound 169, 5-(2,5-Difluorophenyl)-2-(pyridin-2-yl)-4,5,6,7-tetrahydrooxazolo[4,5-c]pyridine]
< 1 | c1ccc(-c2nc3c(o2)CCN(c2cccc4ccccc24)C3)nc1 [Compound 181, 5-(Naphthalen-1-yl)-2-(pyridin-2-yl)-4,5,6,7-tetrahydrooxazolo[4,5-c]pyridine]
< 1 | c1ccc(-c2nc3c(o2)CCN(c2ccccc2N2CCOCC2)C3)nc1 [Compound 193, 5-(2-Morpholinophenyl)-2-(pyridin-2-yl)-4,5,6,7-tetrahydrooxazolo[4,5-c]pyridine]
> 10 | N#Cc1cc(F)cc(N2CCCc3oc(-c4cncnc4)nc3C2)c1 [Compound 206, 3-Fluoro-5-(2-(pyrimidin-5-yl)-7,8-dihydro-4H-oxazolo[4,5-c]azepin-5(6H)-yl)benzonitrile]
< 1 | c1ccc(-c2nc3c(o2)CCN(c2cccnc2)C3)nc1 [Compound 154, 2-(Pyridin-2-yl)-5-(pyridin-3-yl)-4,5,6,7-tetrahydrooxazolo[4,5-c]pyridine]
> 10 | O=C(CN1CCc2nc(-c3ccccn3)oc2C1)c1ccc(F)cc1 [Compound 150, 1-(4-Fluorophenyl)-2-(2-(pyridin-2-yl)-6,7-dihydrooxazolo[5,4-c]pyridin-5(4H)-yl)ethanone]
< 1 | Fc1cc(Cl)cc(N2CCc3oc(-c4ccccn4)nc3C2)c1 [Compound 158, 5-(3-Chloro-5-fluorophenyl)-2-(pyridin-2-yl)-4,5,6,7-tetrahydrooxazolo[4,5-c]pyridine]
< 10 | N#Cc1cc(N2CCCc3oc(-c4ccccn4)nc3C2)cc(F)c1O [Compound 218, 3-Fluoro-2-hydroxy-5-(2-(pyridin-2-yl)-7,8-dihydro-4H-oxazolo[4,5-c]azepin-5(6H)-yl)benzonitrile]
< 1 | N#Cc1cc(O)cc(N2CCCc3oc(-c4ccccn4)nc3C2)c1 [Compound 214, 3-Hydroxy-5-(2-(pyridin-2-yl)-7,8-dihydro-4H-oxazolo[4,5-c]azepin-5(6H)-yl)benzonitrile]
< 1 | Clc1cccnc1N1CCc2oc(-c3ccccn3)nc2C1 [Compound 187, 5-(3-Chloropyridin-2-yl)-2-(pyridin-2-yl)-4,5,6,7-tetrahydrooxazolo[4,5-c]pyridine]
< 1 | N#Cc1ccc(F)c(N2CCc3oc(-c4ccccn4)nc3C2)c1 [Compound 185, 4-Fluoro-3-(2-(pyridin-2-yl)-6,7-dihydrooxazolo[4,5-c]pyridin-5(4H)-yl)benzonitrile]
< 1 | COc1c(F)cc(N2CCCc3oc(-c4ccccn4)nc3C2)cc1C#N [Compound 217, 3-Fluoro-2-methoxy-5-(2-(pyridin-2-yl)-7,8-dihydro-4H-oxazolo[4,5-c]azepin-5(6H)-yl)benzonitrile]
< 10 | Cc1cccnc1-c1nc2c(o1)CCN(c1cc(F)cc(C#N)c1)C2 [Compound 121, 3-fluoro-5-(2-(3-methylpyridin-2-yl)-6,7-dihydrooxazolo[4,5-c]pyridin-5(4H)-yl)benzonitrile]
< 1 | N#Cc1cc(F)cc(N2CCCc3oc(-c4ccc(F)cn4)nc3C2)c1 [Compound 135, 3-fluoro-5-(2-(5-fluoropyridin-2-yl)-7,8-dihydro-4H-oxazolo[4,5-c]azepin-5(6H)-yl)benzonitrile]
< 1 | Fc1ccc(-c2nc3c(o2)CCN(c2cccc(F)c2)C3)nc1 [Compound 124, 5-(3-fluorophenyl)-2-(5-fluoropyridin-2-yl)-4,5,6,7-tetrahydrooxazolo[4,5-c]pyridine]
< 1 | N#Cc1cc(N2CCCc3oc(-c4ccccn4)nc3C2)cc(F)c1F [Compound 216, 2,3-Difluoro-5-(2-(pyridin-2-yl)-7,8-dihydro-4H-oxazolo[4,5-c]azepin-5(6H)-yl)benzonitrile]
